Laboratory results published in patent US4638070A, “Heterocyclic amino-alcohol derivatives” (Continental Pharma, priority 1980, dated 1987).

Tests used:
[1] = Acute toxicity, oral, LD50 (Litchfield and Wilcoxon); conditions: mouse, in vivo, fasted male mice, confidence limits p=95% in brackets
Description: (1) The acute toxicity was determined on fasted male mice. The tested substances were orally administered and LD50 values (lethal dose for 50% of animals) were calculated according to the method of Litchfield and Wilcoxon (J. Pharmacol. exp. Ther. 96, 94-113, 1949). These LD50 values are given in mg/kg and also, when possible, with their confidence limits for p=95%.

[2] = test system: unanaesthetized, hypertension-suffering rat; test: Antihypertensive activity (systolic arterial pressure), oral; assay type: in vivo; conditions: 60 mg/kg, hypertensive rat, 3 hours
Description: (2) The antihypertensive activity was measured on unanaesthetized, hypertension-suffering rat. The tested substances were orally given at a rate of 60 mg/kg. The systolic arterial pressure was measured every 30 minutes for 2 hours before and for 3 hours after the tested product was given. Results are expressed as follows: […]
O: no reduction of arterial pressure.
+: reduction lower than 10 mm Hg.
++: reduction of 10 to 20 mm Hg.
+++: reduction higher than 20 mm Hg.

femoral artery = test: Vasodilator activity, femoral artery (technique of perfused paw); assay type: in vivo; design: key: O: no action; +: slight activity; ++: effect equal to half the effect of papaverine; +++: effect equal to that of papaverine; ++++: effect higher than that of papaverine; conditions: intra-arterial, 30 mg/kg, anaesthetized dog, vs papaverine at same dose
Description: (3) The vasodilator activity was measured at the level of femoral artery on anaesthetized dog (technique of perfused paw). The tested substances were given intra-arterially at the rate of 30 mg/kg. Results are expressed with respect to papaverine tested at the same dose.
++: effect equal to half the effect of papaverine.
+++: effect equal to that of papaverine.
++++: effect higher than that of papaverine.

[3] = test system: guinea-pig ileum (acetylcholine contractions); test: Antispasmodic activity in vitro, contractions caused by acetylcholine; conditions: added 15 minutes before spasm-producing agent
Description: (§1) (4) The antispasmodic activity was measured in vitro, on guinea-pig ileum, the contractions of which were caused by histammne (Hist.), acetylcholine (Achol) or barium chloride (BaCl2). The tested products were added to perfusion bath 15 minutes before the spasm-producing agents.
(§2) The dose is given in micograms (μg) per ml of bath causing complete spasm inhibition.

[4] = test system: guinea-pig ileum (histamine contractions); test: Antispasmodic activity in vitro, contractions caused by histamine; conditions: added 15 minutes before spasm-producing agent
Description: as §1, §2

| SMILES | LD50 [1] | ANTIHYPERTENSIVE ACTIVITY [2] | VASODILATOR ACTIVITY (femoral artery) | ANTISPASMODIC ACTIVITY ACHOL (dose causing complete spasm inhibition) [3] | ANTISPASMODIC ACTIVITY HIST. (dose causing complete spasm inhibition) [4] |
| --- | --- | --- | --- | --- | --- |
| CC1CCc2cc(C(O)C(C)NCCCCc3ccccc3)ccc2S1 (stereo not drawn) [No 5, 1-(2-methyl-6-thiochromanyl)-2-(4-phenylbutylamino)-1-propanol] | 3600 mg/kg | ++ (reduction of 10 to 20 mm Hg) | ++++ | 3.3 μg per ml | – |
| CC(NCCc1ccccc1)C(O)c1ccc2c(c1)CCS2 (stereo not drawn) [No 6] | < 500 mg/kg | + (reduction lower than 10 mm Hg) | +++ | 3.3 μg per ml | – |
| CC(NCCCCc1ccc(Cl)cc1)C(O)c1ccc2c(c1)CCS2 (stereo not drawn) [No 29] | 1750 mg/kg | +++ (reduction higher than 20 mm Hg) | ++ | 1.7 μg per ml | 1.7 μg per ml |
| Cc1ccc(CCCCNC(C)C(O)c2ccc3c(c2)CCS3)cc1 (stereo not drawn) [No 32] | 4000 mg/kg | +++ (reduction higher than 20 mm Hg) | – | 1.7 μg per ml | 0.8 μg per ml |
| Cc1ccc(CCCCNC(C)C(O)c2ccc3c(c2)CCCS3)cc1 (stereo not drawn) [No 34] | ~4000 mg/kg | +++ (reduction higher than 20 mm Hg) | +++ | 0.8 μg per ml | 0.8 μg per ml |
| CC(NCCCCc1ccccc1)C(O)c1ccc2c(c1)CCO2 (stereo not drawn) [No 35] | 430 mg/kg | +++ (reduction higher than 20 mm Hg) | ++ | 1.7 μg per ml | 0.8 μg per ml |
| CC(NCCOc1ccccc1)C(O)c1ccc2c(c1)CCCCS2 (stereo not drawn) [No 36] | > 4000 mg/kg | +++ (reduction higher than 20 mm Hg) | +++ | 1.7 μg per ml | 3.3 μg per ml |
| CC(NCCCSc1ccccc1)C(O)c1ccc2c(c1)CCCS2 (stereo not drawn) [No 37] | > 4000 mg/kg | +++ (reduction higher than 20 mm Hg) | +++ | 1.7 μg per ml | 1.7 μg per ml |
| CC(NCCCSc1ccccc1)C(O)c1ccc2c(c1)CCCCS2 (stereo not drawn) [No 39] | > 4000 mg/kg | ++ (reduction of 10 to 20 mm Hg) | +++ | 0.8 μg per ml | 1.7 μg per ml |
| CC(NCCOc1ccc(Cl)cc1)C(O)c1ccc2c(c1)CCCS2 (stereo not drawn) [No 40] | > 4000 mg/kg | +++ (reduction higher than 20 mm Hg) | +++ | 1.7 μg per ml | 1.7 μg per ml |
| CC1CSc2ccc(C(O)C(C)NCCCCc3ccccc3)cc2C1 (stereo not drawn) [No 45] | > 4000 mg/kg | + (reduction lower than 10 mm Hg) | +++ | 0.8 μg per ml | 0.8 μg per ml |
| CC(NCCOc1ccccc1)C(O)c1ccc2c(c1)CCS2 (stereo not drawn) [No 47] | > 4000 mg/kg | ++ (reduction of 10 to 20 mm Hg) | ++ ++ | 1.7 μg per ml | 1.7 μg per ml |
| CCCCCCCCCCCCCCNC(C)C(O)c1ccc2c(c1)CCCS2 (stereo not drawn) [No 76] | > 4000 mg/kg | + (reduction lower than 10 mm Hg) | – | – | – |
| C=CCCCCCCCCCNC(C)C(O)c1ccc2c(c1)CCS2 (stereo not drawn) [No 92] | > 4000 mg/kg | ++ (reduction of 10 to 20 mm Hg) | – | 16.7 μg per ml | 16.7 μg per ml |
| CC(NCCOc1ccccc1)C(O)c1ccc2c(c1)SCCS2 (stereo not drawn) [No 104] | > 4000 mg/kg | + ++ | – | 16.7 μg per ml | 8.3 μg per ml |
| CC1Cc2cc(C(O)C(C)NCCOCc3ccccc3)ccc2S1 (stereo not drawn) [No 120] | ~1450 mg/kg | ++ (reduction of 10 to 20 mm Hg) | +++ | – | 0.8 μg per ml |
| CC(NCCCCc1ccccc1)C(O)c1ccc2c(c1)SCCO2 (stereo not drawn) [No 122] | 1650 mg/kg | +++ (reduction higher than 20 mm Hg) | ++++ | – | 0.3 μg per ml |
| CC(NCCOc1ccccc1)C(O)c1ccc2c(c1)SCCO2 (stereo not drawn) [No 123] | > 4000 mg/kg | +++ (reduction higher than 20 mm Hg) | ++++ | – | 0.8 μg per ml |
| CCC(NCCOc1ccccc1)C(O)c1ccc2c(c1)CCS2 (stereo not drawn) [No 126] | > 4000 mg/kg | +++ (reduction higher than 20 mm Hg) | – | – | – |
| COCCOCCCNC(C)C(O)c1ccc2c(c1)CCS2 (stereo not drawn) [No 129] | 250 mg/kg | +++ (reduction higher than 20 mm Hg) | – | – | – |
| CCCC(=O)OC(c1ccc2c(c1)CCS2)C(C)NCCCCc1ccccc1 (stereo not drawn) [No 130] | 3700 mg/kg | +++ (reduction higher than 20 mm Hg) | – | – | – |
| CCCCCCCCNC(C)C(OC(=O)CC)c1ccc2c(c1)CCCS2 (stereo not drawn) [No 131] | > 4000 mg/kg | + (reduction lower than 10 mm Hg) | – | – | – |
| CC(NCCCCc1ccccc1)C(OC(=O)C1CCC1)c1ccc2c(c1)CCS2 (stereo not drawn) [No 132] | 1900 mg/kg | +++ (reduction higher than 20 mm Hg) | – | – | – |
| CCCCCCCC(=O)OC(c1ccc2c(c1)CCS2)C(C)NCCCCc1ccccc1 (stereo not drawn) [No 133] | 2600 mg/kg | +++ (reduction higher than 20 mm Hg) | – | – | – |
| CCCCCCCCNC(C)C(OC(=O)CCC)c1ccc2c(c1)CCCS2 (stereo not drawn) [No 134] | > 4000 mg/kg | +++ (reduction higher than 20 mm Hg) | – | – | – |
| CCC(NCCCCc1ccccc1)C(O)c1ccc2c(c1)CCCS2 (stereo not drawn) [No 135] | > 4000 mg/kg | +++ (reduction higher than 20 mm Hg) | – | – | – |
| CC(NCCCCc1ccccc1)C(OC(=O)C1CCCC1)c1ccc2c(c1)CCS2 (stereo not drawn) [No 137] | ~1750 mg/kg | +++ (reduction higher than 20 mm Hg) | – | – | – |
| CC(NCCCCc1ccccc1)C(OC(=O)C1CCCCC1)c1ccc2c(c1)CCS2 (stereo not drawn) [No 138] | > 4000 mg/kg | +++ (reduction higher than 20 mm Hg) | – | – | – |
| CCCCSCCCNC(C)C(O)c1ccc2c(c1)CCC2 (stereo not drawn) [No 178] | 870 mg/kg | ++ (reduction of 10 to 20 mm Hg) | ++++ | – | 1.7 μg per ml |
| COCCOCCCNC(C)C(O)c1ccc2c(c1)CCC2 (stereo not drawn) [No 179] | 250 mg/kg | +++ (reduction higher than 20 mm Hg) | – | – | – |
